Experimental data taken from patent EP0535336A2, “MK protein as cell growth inhibitor” (AMERICAN CYANAMID COMPANY, priority 1991, dated 1993).

Assays:
mouse EC cell line, HM-1 = conditions: retinoic acid induction; cited from earlier work
[1] = system: human embryonal carcinoma (EC) cell line NT2/D1; test: Retinoic acid induction of NT2/D1 cells (differentiation, northern analysis); type: cell-based; conditions: nine days of RA, 0.01 to 10 µM, normalized to β-actin probe
Method: The human embryonal carcinoma (EC) cell line NT2/D1 can be induced to differentiate at concentrations of retinoic acid (RA) varying from 0.01 to 10 µM, with the proportion of differentiating EC cells ranging from 50% at […] RA to greater than 99% at […] RA. The expression of MK and HBNF during differentiation of NT2/D1 is studied, at concentrations ranging from 0.01 to 10 µM. After nine days of exposure to RA, total RNA was extracted from cells and probed for gene expression by northern analysis. Expression of both gene follows a similar pattern. Levels of mRNA expression remain at a steady background level. When RNA hybridization signals are normalized to a control β-actin probe, the maximum increases are calculated to be 6-fold for HBNF and 11-fold for MK. […] In this cell line, MK gene expression is induced 8-10 fold above background.
The human embryonal carcinoma cell line Nt2/D1 is grown. For retinoic acid induction, cells are grown and resuspended in DMEM medium containing 10% bovine calf serum and resuspended in DMEM medium containing 10% bovine calf serum (Hyclone Laboratories, Inc.) at a density of 5 x 10⁵ cells per 100 mm dish. Varying concentrations of all-trans retinoic acid in dimethyl sulfoxide (10 µl) is added and cells are incubated for 9 days. Fresh medium and RA are added at days 4 and 8. […]

CC1=C(/C=C/C(C)=C/C=C/C(C)=C/C(=O)O)C(C)(C)CCC1 [RA, all-trans retinoic acid]
MK gene expression induced above background (mouse EC cell line, HM-1): 8-10 fold | maximum increase of HBNF mRNA expression [1]: 6 fold | maximum increase of MK mRNA expression [1]: 11 fold
